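Five compound concentrations were applied to cells in 96-well plates for 48 hours; endpoints were derived by simple linear interpolation of the resulting dose-response curve. At the GI50, growth is halved. TGI: total growth inhibition.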

This is an account of results in PubChem BioAssay (NCI).

Common to all, as to experiment: inhibition of tumour cell growth, NCI panel, 48 h
The subject of test [1] is SNB-75 CNS.
The test system of test [2] is K-562 leukemia.
Test [3] has as its system MDA-MB-435.
In test [4] the test system is NCI-H226 lung.
For test [5], the system named is HCT-116 colon.
Test [6] relates to SK-OV-3 ovarian.
Test [7] has as its system TK-10 renal.
Test [8] has as its system MCF7 breast.
For test [9], the system named is MDA-MB-231 breast.
The test system of test [10] is 786-0 renal.

Turning to `CC1(C)N=C(N)N=C(N)N1c1ccc(CCCCc2ccc(S(=O)(=O)F)cc2)c(Cl)c1`, the GI50 in test [1] is 514 nM; in test [2] it was 62.8 nM; in test [3] it was 66.6 nM; in test [4], 626 nM; in test [5] it was 48.3 nM; in [6] it was 7970 nM. The GI50 was 848 nM in test [7], 198 nM in test [8], 1760 nM in test [9] and 224 nM in [10]. Further, the TGI worked out at 18900 nM in test [1]; 17900 nM in test [2]; 16600 nM in [3]; 25900 nM in test [4]; 18900 nM in [5]; 25500 nM in [6]. For the same compound, the TGI stood at 20300 nM in test [7], 14200 nM in test [8], 21200 nM in test [9] and 19300 nM in test [10].

For `Cc1ccc(C2=Nc3ccccc3SC(c3cccc([N+](=O)[O-])c3)C2)cc1` (stereo not drawn), the TGI is 38600 nM in test [1]; 23800 nM in [2]; 79200 nM in test [3]; > 100000 nM in test [4]; 20800 nM in test [5]; > 100000 nM in test [6]. Besides, the TGI in test [7] was 86800 nM; in test [8], > 100000 nM; in test [9], > 100000 nM; in test [10], 27000 nM.

On to `CN(CCCCCl)P(=O)(OCCS(=O)(=O)CC(NC(=O)CCC(N)C(=O)O)C(=O)NC(C(=O)O)c1ccccc1)OCC1OC(n2cc(F)c(=O)[nH]c2=O)CC1O` (stereo not drawn), for which the GI50 was 14500 nM in [1]; 1810 nM in [2]; 2270 nM in [3]; 628 nM in [4]; 161 nM in test [5]; 41300 nM in test [6]. Moreover, the GI50 is 944 nM in [7], < 10 nM in test [8], 8960 nM in [9] and 15.5 nM in test [10]. Further, the TGI was > 100000 nM in [1]; > 100000 nM in [2]; > 100000 nM in test [3]; > 100000 nM in test [4]; 39900 nM in test [5]; > 100000 nM in [6]. The TGI in test [7] is > 21400 nM; in test [9], 68600 nM; in test [10] it was 2620 nM.

For `COC(=O)c1nc(-c2ccccc2)oc1S(=O)(=O)n1nc(C)cc1N`, the GI50 in [1] was 13200 nM; in test [2], 2130 nM; in test [3], 11400 nM; in test [4], 16500 nM; in test [5], 4730 nM; in test [6], 45500 nM. The GI50 is 11300 nM in [7], 6950 nM in test [8], 9030 nM in [9] and 12500 nM in [10]. Moreover, the TGI was 26600 nM in test [1]; 6980 nM in test [2]; 25300 nM in [3]; 41100 nM in test [4]; 17600 nM in test [5]; > 100000 nM in test [6]. The TGI in test [7] is 24600 nM; in [8], 27500 nM; in [9] it was 21800 nM; in test [10] it was 25600 nM.

Take `C[C@@H]1O[C@@H](O[C@H]2CC[C@@]3(C)[C@H](CCC4[C@@H]3C(O)C[C@]3(C)[C@@H](c5ccc(=O)oc5)CC[C@]43O)C2)[C@H](O)[C@H](O)[C@H]1O` (stereo partly drawn): the GI50 in test [1] was 4.7 nM; in test [2], 9.84 nM; in [3] it was 6.33 nM; in [4] it was 6.08 nM; in test [5], < 3.25 nM; in test [6], 5.02 nM. In addition, the GI50 in [7] is < 3.25 nM; in test [8], 8.28 nM; in [9], 11.2 nM; in [10], 4.09 nM. The TGI turned out to be 10.7 nM in test [1]; 879 nM in test [2]; 13.1 nM in test [3]; 10.7 nM in [4]; 5.44 nM in test [5]; 9.87 nM in [6]. Also, the TGI in test [7] stood at 5.55 nM; in test [8] it was 65.9 nM; in test [9], 36.9 nM; in [10] it was 16.9 nM.

As for `N#CN1CC[C@H](C(=O)Nc2ncc(-c3ccncc3)s2)C1`, the GI50 in test [1] was < 14.8 nM; in test [2], 47.1 nM; in [3], < 14.8 nM; in test [4] it was 151 nM; in test [5], 40.1 nM; in test [6] it was 1150 nM. Also, the GI50 in [7] is 109 nM; in [8] it was < 10.9 nM; in test [9], < 26.6 nM; in [10], 41.5 nM. Moreover, the TGI in test [1] was 530 nM; in [2] it was > 100000 nM; in test [3] it was 5520 nM; in test [4], 1500 nM; in test [5], 3200 nM; in test [6], > 30900 nM. Further, the TGI in test [7] is 6180 nM; in test [8] it was > 70200 nM; in test [9], > 50200 nM; in test [10] it was 2330 nM.

`COc1ccc(C(=O)N2c3ccccc3Sc3ccccc32)c(OC)c1`: the GI50 in test [1] was 209 nM; in [2], 381 nM; in [3], 212 nM; in test [4], 843 nM; in test [5] it was 452 nM; in [6], 715 nM. Moreover, the GI50 in test [7] was > 100000 nM; in test [8], 450 nM; in test [9], 830 nM; in test [10] it was 480 nM. Moreover, the TGI is > 100000 nM in test [1]; > 100000 nM in test [2]; 953 nM in [3]; > 100000 nM in [4]; > 100000 nM in test [5]; > 100000 nM in test [6]. The TGI in test [7], in test [8], in test [9] and in test [10] was > 100000 nM each time.

Turning to `COc1cc2c(c(OC)c1OC)-c1ccc(SC)c(=O)cc1[C@@H](NC1OC(CO)C(O)C(O)C1O)CC2` (stereo partly drawn), the GI50 in test [1] was 43.9 nM; in test [2] it was 22.7 nM; in test [4] it was 1520 nM; in test [5], 31.4 nM; in test [6], 39.6 nM; in test [7], 47.8 nM. The GI50 was 21.5 nM in test [8], 34.1 nM in [9] and 57.5 nM in test [10]. In addition, the TGI is > 100000 nM in test [1]; > 100000 nM in [2]; 37.3 nM in test [3]; > 100000 nM in test [4]; > 100000 nM in test [5]; > 100000 nM in [6]. The TGI in [7] is 31200 nM; in test [8], > 100000 nM; in test [9] it was > 100000 nM; in [10], > 100000 nM.
